Laboratory results reported in patent US11000531B2, “Methods of treating certain depressive disorders and delirium tremens” (MARINUS PHARMACEUTICALS INC., priority 2016, dated 2021).

Assays:
[1] = Ganaxolone solubility in water
[2] = Ganaxolone concentration reached in 30% Captisol solutions (HPLC); type: physicochemical; conditions: dry mixing method, after 90 hours of stirring
Procedure: 500 μl of 10% aqueous Polysorbate 80 solution in a 20 ml scintillation vial were combined with powdered ganaxolone (50 mg). The mixture was stirred to wet the ganaxolone. Solid Captisol (3.2 g), sufficient to form a 30% Captisol solution, was then added to the vial and the vial contents were mixed. Deionized water (8.0 g) was then added and the mixture was vigorously stirred at room temperature overnight to obtain a hazy solution. An aliquot was filtered through 0.2 μm syringe filter and ganaxolone concentration was assayed by HPLC to be 4.28 mg/ml.
Ganaxolone was vigorously stirred in 30% Captisol in the presence of 10% v/v ethanol overnight to obtain a 3.16 mg/ml ganaxolone solution.
Ganaxolone was vigorously stirred in 30% Captisol in the presence of 10% v/v glycerin overnight to obtain a 3.45 mg/ml ganaxolone solution.
Ganaxolone was vigorously stirred in 30% Captisol in the presence of 10% v/v propylene glycol overnight to obtain a 2.53 mg/ml ganaxolone solution.
Powdered ganaxolone (125 mg) was charged into 100 ml beaker. Captisol powder (7.9 g) was then added to the beaker. The mixture was mixed by stirring with a magnetic stir bar for 5 minutes. Deionized water (20.1 g) was weighed into a plastic cup. About half of the water was added into the beaker and the contents were vigorously stirred for 30 minutes to obtain a homogeneous mixture. […]

[3] = human plasma; cited from earlier work
[4] = tested on: women suffering from postpartum depression; conditions: women with postpartum depression, cited from earlier work

SMILES: CC(=O)[C@H]1CC[C@H]2[C@@H]3CC[C@H]4C[C@](C)(O)CC[C@]4(C)[C@H]3CC[C@]12C [Ganaxolone, 3α-hydroxy, 3β-methyl-5α-pregnan-20-one]
- solubility [1]: < 1 µg/mL
- ganaxolone concentration after prolonged stirring [2]: remained unchanged

SMILES: CC(=O)[C@H]1CC[C@H]2[C@@H]3CC[C@H]4C[C@H](O)CC[C@]4(C)[C@H]3CC[C@]12C [Allopregnanolone, 3α,5α-tetrahydroprogesterone]
- half-life [3]: about 45 minutes
- mean HAM-D score lower than placebo-treated subjects ([4]; end of sixty hour intravenous infusion, baseline HAM-D greater than 25): 12 points
- persistence of effects after infusion ([4]; after intravenous infusion): 30 days
